# Source: patent publication US8367835B2, “Cyclic amine-1-carboxylic acid ester derivative and pharmaceutical composition containing the same” (Dainippon Sumitomo Pharma Co., Ltd., priority 2008, dated 2013)
# Where two headings read alike, the source gives them in different places.
# Experiments:
# [1] = tested on: micronucleus-containing immature erythrocyte; experiment: Bone marrow micronucleus test; format: in vivo, rat; settings: subcutaneous, twice every 24 hours, Crl: CD male rats; dosage at which fatal cases start occurring and dosages up thereto
# Description: Each compound of Examples 2, 16 and 37 dissolved in physiological saline containing ethanol and Tween 80 was subcutaneously administered to Crl: CD male rats twice every 24 hours and micronucleus inducing potential was evaluated.
# [2] = molecular target: T1, TRPV1 (Rattus norvegicus, UniProt O35433); experiment: TRPV1 agonist activity by intracellular calcium level (FLIPR method); format: cell-based; settings: rat dorsal root ganglion primary culture cells
# T1 construct: using cultured rat dorsal root ganglion cells which express TRPV1 abundantly; endogenous in cells; host or cells: primary culture of dorsal root ganglion cells from 7 day old Wistar rat
# From the text: The test is to measure the elevation of intracellular calcium level as the indicator of TRPV1 agonist activity of a test compound using cultured rat dorsal root ganglion cells which express TRPV1 abundantly, and carried out in accordance with the method of Jerman et al. (Jerman, J. C. et al., Comparison of effects of anandamide at recombinant and endogenous rat vanilloid receptors. Br J Anaesth, 2002. 89(6): p. 882-7). More specifically, the dorsal root ganglion was removed from a 7 day old Wistar rat, and the cells were isolated by collagenase-trypsin treatment. Subsequently, the primary cells was cultured in a CO2 incubator controlled at 5% CO2 and 37° C. for 2 days. The culture medium used was Neurobasal™ medium supplemented with L-glutamine, nerve growth factor, N-2-Supplement, Penicillin-Streptomycin, 5-Fluoro-2′-deoxyuridine (culture day 1 only) were added to.
# FLIPR^TETRA system (Molecular Devices Corp.) was used to measure the intracellular calcium concentration. As an indicator of TRPV1 agonistic activity, the fluorescence intensity elevation was monitored when a test compound is applied to the rat dorsal root ganglion primary culture cells loaded with a calcium-sensitive fluorescent reagent.
# [3] = tested on: mechanical hyperalgesia in a neuropathic pain model (rat Chung model); experiment: Analgesic effect: von Frey filament test using rat Chung model, transdermal administration; format: in vivo; settings: 0.1% formulation applied transdermally to plantar surface of left hindlimb once a day for 2 weeks; measured on the day after last administration; pre-administration value = 100%
# Description: The present test is to measure the analgesic effect based on the improvement level of the mechanical hyperalgesia in a neuropathic pain model as the indicator by transdermally administering the compound of the present invention and was carried out in accordance with the method of Kim and Chung [Pain, 50, 355-363 (1992)] or the method of Tsuda et al. [Nature, 424, 778-783, 2003].
# Specifically, using Jcl: Wistar male rat (7 to 9 rats/group, 5 weeks of age at the time of surgery), spinal nerves were injured to induce hyperalgesia and the withdrawal threshold was measured using the von Frey filament. In the surgery, under Pentobarbital anesthesia, the left L5 spinal nerve was exposed, ligated near the spinal cord using a silk suture (5-0) and transected just peripheral to the ligation. After suturing the incision and keeping the rats for 2 weeks, the rats were subjected to the von Frey filament test. The measurement of the mechanical hyperalgesia was carried out by applying von Frey filaments (1.0, 2.0, 4.0, 8.0, 15.0 g) to the plantar surface of the left hindlimb, and the filament intensity at which 50% or higher withdrawal behavior was observed was defined as the withdrawal threshold.
# After dissolving the test compounds in a mixture of Tween 80 and ethanol, the obtained solution was mixed with a hydrophilic ointment to prepare a formulation having a concentration of 0.1%. The withdrawal threshold before administering the test compound was measured to define the pre-administration value (100%). Thereafter, once a day, for 2 weeks, the formulation having a concentration of 0.1% was transdermally administered (applied) to the plantar surface of the left hindlimb, the von Frey filament test was carried out on the following day of the last administration to measure the post-administration value. Further, the same formulation as above but free of the test compound was prepared as a vehicle control and the same test was carried out.
# The analgesic effect is a relative ratio when a test compound pre-administration value calculated using the following numerical formula is 100%. The pre-administration withdrawal threshold was 3.3±0.1 g (119 cases) (the withdrawal threshold of sham-operated rat was 10 to 15 g). %=(test compound post-administration withdrawal threshold value/pre-administration withdrawal threshold value)×100
# [4] = tested on: mechanical hyperalgesia in a neuropathic pain model (rat Chung model); experiment: Analgesic effect in combination with Pregabalin: von Frey filament test using rat Chung model, i.pl. administration; format: in vivo; settings: for % to pre-administration value: (1) Test compound post-i. pl. administration value: 50 μl of 0.1% (W/V) solution intraplantar to left hindlimb, measured on the following day, test compound alone; for % to pre-administration value: (2) Pregabalin post-oral administration value (Test compound administered on the day before): test compound i.pl. the day before plus Pregabalin 10 mg/kg orally, combined effect
# Description: The study was conducted using the same methods and evaluation criteria as in Test Example 1 with the exception of the administration route of the test compounds (see Test Example 1).
# Using the von Frey filaments the test compound pre-administration values (pressure withdrawal threshold) were measured. Subsequently, 50 μl of a solution containing a test compound or vehicle control was intraplantarly injected to the left hindlimb using a microsyringe (intraplantar injection: i. pl. administration), and on the following day the withdrawal threshold was measured (effect of the test compound alone). Thereafter, 10 mg/kg of Pregabalin was orally administered and an hour later the withdrawal threshold was measured (combined effect).
# Pregabalin was dissolved in distilled water. Physiological saline containing Tween 80 and ethanol was used as the vehicle control for the i. pl. administration.
# The analgesic effect is a relative ratio when a pre-administration value calculated using the following numerical formula is 100%.
# [5] = tested on: eye of a Std: ddy male mouse; experiment: Pungency: eye-wiping test; format: in vivo; settings: 10 μg/ml, one drop to mouse eye, counted every minute up to 5 minutes
# Description: The test is to examine the pungency of the compound of the present invention, and was carried out in accordance with the method by Jancso et al. [Acta. Physiol. Acad. Sci. Hung., 19, 113-131 (1961)] and the method by Szallasi et al. [Brit. J. Pharmacol., 119, 283-290 (1996)]. Specifically, the test compounds were dissolved in physiological saline containing 5% Tween 80 and 5% ethanol to give each (10 or 30 μg/ml) concentration, and one drop of the obtained solution was applied to the eye of a Std: ddy male mouse (5 mice per group, body weight 20 to 30 g) and the number of the protective wiping behavior with the front paws was counted every minute up to 5 minutes after the administration. Then, the average counts in each minute was calculated and the maximum number was defined as the representative value. Further, as vehicle control, the same test was carried out using physiological saline containing 5% Tween 80 and 5% ethanol.
# [6] = read-out: Value (%) when fluorescence intensity for capsaicin (1 μM) is 100%, 1 μM
# [7] = 1 μM, read-out: Value (%) when fluorescence intensity for capsaicin (1 μM) is 100%
# T1 sequence (O35433 whole entry): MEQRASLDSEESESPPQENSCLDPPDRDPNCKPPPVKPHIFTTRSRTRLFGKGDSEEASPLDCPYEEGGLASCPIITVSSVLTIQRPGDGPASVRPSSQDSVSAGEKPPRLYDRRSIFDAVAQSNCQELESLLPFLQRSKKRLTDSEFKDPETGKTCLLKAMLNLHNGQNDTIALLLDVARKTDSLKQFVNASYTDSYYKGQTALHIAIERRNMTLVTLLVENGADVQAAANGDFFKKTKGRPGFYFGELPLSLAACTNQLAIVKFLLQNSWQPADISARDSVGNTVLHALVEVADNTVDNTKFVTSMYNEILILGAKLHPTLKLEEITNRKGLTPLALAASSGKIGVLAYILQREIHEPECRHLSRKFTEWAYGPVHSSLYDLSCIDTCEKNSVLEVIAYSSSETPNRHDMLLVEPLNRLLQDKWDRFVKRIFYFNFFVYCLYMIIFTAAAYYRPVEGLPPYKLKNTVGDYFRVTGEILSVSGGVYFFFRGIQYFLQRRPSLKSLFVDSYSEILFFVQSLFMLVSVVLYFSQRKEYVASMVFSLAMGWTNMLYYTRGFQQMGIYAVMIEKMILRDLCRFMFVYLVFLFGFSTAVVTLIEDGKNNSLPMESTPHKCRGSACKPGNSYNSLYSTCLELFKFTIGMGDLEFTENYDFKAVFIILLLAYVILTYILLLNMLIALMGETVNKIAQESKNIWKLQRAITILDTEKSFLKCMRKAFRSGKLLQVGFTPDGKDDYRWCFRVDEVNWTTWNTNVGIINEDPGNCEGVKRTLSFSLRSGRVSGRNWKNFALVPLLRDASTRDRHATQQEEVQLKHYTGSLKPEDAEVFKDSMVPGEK
compound,measurement,setting,value
COc1cc(CNC(=O)C2CN(C(=O)O[C@H]3CC[C@@H](C(C)(C)C)CC3)C2)ccc1O [Example 16],micronucleus inducing potential,[1],no micronucleus inducing potential
same,Emax at 1 µM,[2]; [6],84%
same,% to pre-administration value (withdrawal threshold),[3],218%
same,% to pre-administration value: (1) Test compound post-i. pl. administration value,[4],200%
same,% to pre-administration value: (2) Pregabalin post-oral administration value (Test compound administered on the day before),[4]; measured an hour later,223%
CC[C@H]1CC[C@H](OC(=O)N2CCC(C(=O)NCc3ccc(O)c(OC)c3)CC2)CC1 [Example 2],micronucleus inducing potential,[1],no micronucleus inducing potential
same,Emax at 1 µM,[2]; [6],84%
COc1cc(CNC(=O)C2CCN(C(=O)OC3CCC(C)(C)CC3)CC2)ccc1O [Example 8],Emax at 1 µM,[2]; [7],96%
same,% to pre-administration value (withdrawal threshold),[3],191%
same,% to pre-administration value: (1) Test compound post-i. pl. administration value,[4],197%
same,% to pre-administration value: (2) Pregabalin post-oral administration value (Test compound administered on the day before),[4]; measured an hour later,244%
same,melting point,,111 °C
"COc1cc(CNC(=O)CCCC/C=C/C(C)C)ccc1O [Capsaicin, (E)-8-methyl-N-vanillyl-6-nonenamide, reference compound]",Value (%) when fluorescence intensity for capsaicin (1 μM) is 100%,[2]; 1 μM,100%
same,% to pre-administration value (withdrawal threshold),[3],228%
same,"Representative value of the counts of protective wiping behavior (Maximum counts, counts/min)",[5],20.0 counts/min
same,"Representative value of the counts of protective wiping behavior (Maximum counts, counts/min)",[5]; listed as capsaicin,vigorous wiping behavior was observed
"COc1cc(CNC(=O)C2CCN(C(=O)O[C@H]3CCC[C@H](C)C3)CC2)ccc1O [Example 36, (1S,3S)-3-methylcyclohexyl 4-(4-hydroxy-3-methoxybenzylcarbamoyl)-piperidine-1-carboxylate]",Value (%) when fluorescence intensity for capsaicin (1 μM) is 100%,[2]; 1 μM,104%
same,% to pre-administration value (withdrawal threshold),[3],209%
"CCC1(CC)CCC(OC(=O)N2CC(C(=O)NCc3ccc(O)c(OC)c3)C2)CC1 [Example 14, 4,4-diethylcyclohexyl 3-(4-hydroxy-3-methoxybenzylcarbamoyl)-azetidine-1-carboxylate]",Emax at 1 µM,[2]; [7],78%
same,% to pre-administration value (withdrawal threshold),[3],241%
"COc1cc(CNC(=O)C2CCN(C(=O)O[C@@H]3CCCC[C@@H]3C)CC2)ccc1O [Example 37, (1R,2S)-2-methylcyclohexyl 4-(4-hydroxy-3-methoxybenzylcarbamoyl)-piperidine-1-carboxylate]",micronucleus inducing potential,[1],no micronucleus inducing potential
same,Value (%) when fluorescence intensity for capsaicin (1 μM) is 100%,[2]; 1 μM,101%
same,% to pre-administration value (withdrawal threshold),[3],236%
same,% to pre-administration value: (1) Test compound post-i. pl. administration value,[4],169%
same,% to pre-administration value: (2) Pregabalin post-oral administration value (Test compound administered on the day before),[4]; measured an hour later,219%
"COc1cc(CNC(=O)C2CCN(C(=O)O[C@@H]3CCC[C@@H](C)C3)CC2)ccc1O [Example 35, (1R,3R)-3-methylcyclohexyl 4-(4-hydroxy-3-methoxybenzylcarbamoyl)-piperidine-1-carboxylate]",Emax at 1 µM,[2]; [7],86%
same,% to pre-administration value (withdrawal threshold),[3],183%
"COc1cc(CNC(=O)C2CCN(C(=O)O[C@H]3CCCC[C@H]3C)CC2)ccc1O [Example 38, (1S,2R)-2-methylcyclohexyl 4-(4-hydroxy-3-methoxybenzylcarbamoyl)-piperidine-1-carboxylate]",Emax at 1 µM,[2]; [6],97%
same,% to pre-administration value (withdrawal threshold),[3],243%
"CC[C@H]1CC[C@@H](OC(=O)N2CCC(C(=O)NCc3ccc(O)c(OC)c3)CC2)CC1 [Example 1, cis-4-ethylcyclohexyl 4-(4-hydroxy-3-methoxybenzylcarbamoyl)-piperidine-1-carboxylate]",Emax at 1 µM,[2]; [6],87%
same,% to pre-administration value (withdrawal threshold),[3],220%
"CC(C)C[C@H](CN)CC(=O)O [Pregabalin, reference compound]",% to pre-administration value: (2) Pregabalin post-oral administration value (vehicle control administered on the day before),"[4]; vehicle i.pl. the day before, Pregabalin 10 mg/kg orally, measured an hour later, Pregabalin alone",125%
